Results on one molecule are retold here after paper PMC9020739, “Identification of a two-component regulatory system involved in antimicrobial peptide resistance in Streptococcus pneumoniae” (PLoS Pathogens, 2022).

Holding throughout (assay type): cell-based, Streptococcus pneumoniae
Assay [1] has as its system bceAB and tcs01 genes in S. pneumoniae D39 WT. Kind of assay: Quantification of gene expression by qPCR. The settings on record: D39 wild-type, bacitracin 1 μg/ml for 5, 15 and 30 min, relative to untreated control. The method, then:
(§1) S. pneumoniae D39 WT and Δtcs01 strains were routinely grown to OD600nm = 0.3 in THY. Then 1 μg/mL of bacitracin was added to the growth media for up to 30 min. Samples were taken at time points shown in the results section. Next, the cultures were mixed with RNA protect (Qiagen) at 1:1 ratio and incubated at room temperature for 5 min and centrifuged for 10 min at 3, 200 g at 4°C. The supernatant was decanted and the pellet was stored at -80°C. The bacteria were resuspended in 100 μL of sterile Tris-EDTA (TE), containing 15 mg/mL lysozyme (Sigma) then 20 μL of Proteinase K (20 mg/mL) (Roche) were added. The sample was vortexed 5 times for 10 sec at two-minutes intervals. Then 350 μL of lysis buffer from the Nucleospin RNA kit (Macherey-Nagel) were added to the sample with 3.5 μL of β-mercaptoethanol and 25 mg of glass beads (Sigma). The cells were lysed by continual vortexing for 5 min. The mRNA was extracted according to the manufacturer’s instructions. After elution, RNA samples were incubated with 5 μL of DNAse for 20 min at room temperature, then inactivated by heating for 70°C for 5 min. RNA concentration was measured using Nanovue (GE Healthcare). For cDNA synthesis 1 μg of RNA was generally used with the SuperScript III kit (Invitrogen) containing a reverse transcriptase, a set of primers, dNTPs, MgCl2 random hexamers and […] after the cDNA generation according to manufacturer’s instructions. Samples were then stored at -20°C. qPCR measurements were done with 2.5 μL of cDNA mixed with 1 μL (3 μM final) of forward and reverse primers, 5 μL iQ SYBR Green Supermix (BioRad) and 0.5 μL water using the CFX Connect Optical Module (BioRad) program as follows: 95°C for 3 min, then a repeat 40 times of 95°C for 10 sec, 55°C for 30 sec, and a fluorescence reading.
(In general: In qPCR the cycle at which signal appears reflects the starting amount.)

For assay [2], the system named is bceAB genes in S. pneumoniae D39 Δtcs01. Put plainly: Quantification of gene expression by qPCR. Particulars: D39 Δtcs01 knockout; bacitracin 1 μg/ml. As for the experimental part: as §1
Assay [3] relates to BceAB protein levels in R6 WT strain. Kind of assay: Quantitative proteomics (TMT labeling, LC-MS/MS). The settings on record: R6 wild-type, bacitracin 1 μg/ml for 45 min versus untreated. As for the experimental part: (§2) In experiments 1 and 2, we analyzed the R6 WT and R6 Δtcs01 strains treated or not with 1 μg/mL of bacitracin. In experiment 3, we analyzed the R800-Δhk01-PcomX-rr01-hk01 strain treated with either 1 μg/mL or 32 μg/mL of bacitracin.
(§3) Strains were grown in 50 mL of THY medium at 37°C without agitation and in anaerobic conditions until the absorbance reaches approximatively 0.3. After the addition of bacitracin (final concentrations of 1 or 32 μg/mL), the bacterial cultures were incubated for 45 min at 37°C with a slight mechanical agitation (60 rpm). Then, the cell density was adjusted to an OD600nm = 0.8 in 10 mL. After centrifugation at 4,000 x g for 10 min at 4°C, the pellets were resuspended with 1 mL of cold Tris-HCl 50 mM pH 7.5 and centrifuged at 10,000 x g, for 5 min at 4°C. The pellets were harvested and treated in the same conditions than previously. The contents were transferred into Eppendorf low-binding tubes. After a last centrifugation at 10,000 x g for 5 min at 4°C, the bacterial pellets were stored at -80°C. […] The proteins were quantified by using BCA assay kit (Thermo Scientific) before sending the samples to mass spectrometry analysis.
(§4) To compare the proteins abundance between the different conditions/samples, we used a multiplexed quantitation method after labeling by isobaric Tandem Mass Tags (TMT). […]
(§5) We simultaneously compared 6 TMT samples within the same experiment. In the experiment 1 we analyzed one sixplex containing R6 WT, R6 WT+ Bacitracin 1, R6 WT+ Bacitracin 2, R6 ΔTCS, R6 ΔTCS+ Bacitracin 1, R6 ΔTCS+ Bacitracin 2 labeled with reporter ions 126, 127, 128, 129, 130 and 131, respectively; and experiment 2 is a second sixplex containing R6 WT1, R6 WT2, R6 WT+ Bacitracin, R6 ΔTCS1, R6 ΔTCS2, R6 ΔTCS+ Bacitracin labeled with reporter ions 126, 127, 128, 129, 130 and 131, respectively. The calculated ratios shown in Figs 5 and S5 are: experiment 1: R6 WT+ Bacitracin (1/2)/R6WT and R6 WT+ Bacitracin (1/2)/ R6 ΔTCS+ Bacitracin (1/2); experiment 2: R6 WT+ Bacitracin /R6WT (1/2) and R6 WT+ Bacitracin/ R6 ΔTCS+ Bacitracin. […]

In assay [4] the test system is protein levels in R6 Δtcs01 strain. Put plainly: Quantitative proteomics (TMT labeling, LC-MS/MS). The method, then:
as §2, §3, §4, §5

Where a SMILES comes first, the peptide text is derived from it. Bridges are numbered along the chain shown (N, C = ends). [ ]: non-standard residue; d: D form. The star is where a group is joined. Ileψ(thiazoline)Cys = CC[C@H](C)[C@H](N)C1=N[C@H](C(=O)*)CS1; dOrn = NCCC[C@@H](N)C(=O)O

Turning to `CC[C@H](C)[C@H](N)C1=N[C@H](C(=O)N[C@@H](CC(C)C)C(=O)N[C@H](CCC(=O)O)C(=O)N[C@H](C(=O)N[C@H]2CCCCNC(=O)[C@H](CC(N)=O)NC(=O)[C@@H](CC(=O)O)NC(=O)[C@H](Cc3cnc[nH]3)NC(=O)[C@@H](Cc3ccccc3)NC(=O)[C@H]([C@@H](C)CC)NC(=O)[C@@H](CCCN)NC2=O)[C@@H](C)CC)CS1` [bacitracin] ({Ileψ(thiazoline)Cys}-L[dE]IK[dOrn]I[dF]H[dD]N; lactam 4-C (inferred); N-terminus assumed), the “Transcription of the tcs01 genes” value in assay [1] is recorded as “unaffected”. For the same molecule, the “Transcription of the bceAB genes” value in assay [1] (n = 6-8) is “strong upregulation”; in assay [2], “failed to upregulate”. Moreover, the “Accumulation of BceAB upon treatment” value in assay [3] is given as 7 ± 3 fold. The “BceAB protein levels upon treatment” value in assay [4] (R6 Δtcs01, bacitracin 1 μg/ml for 45 min versus untreated, average) worked out at 0.99 ± 0.09 fold. The “Abundance of LiaS upon treatment” value in assay [4] (R6 Δtcs01 treated with bacitracin, TMT proteomics) is “increased by two-fold”.
